system: HBV viral load (viral production from HepAD38 cells); assay: Activity of test compounds on viral production from HepAD38 cells (viral load by qPCR of HBV core sequence); format: cell-based; conditions: Hepatitis B virus, HePAD38, 120 h, viral load lowering, 5 days, qPCR of supernatant, read-out: VL HepAD38 EC50 range
Experimental: Assay Measuring Activity of Test Compounds on Viral Production from HepAD38 Cells
HepAD38 cells grown in a T-150 flask (Corning, cat #: 430825) with Growth Medium (DMEM/F12 (1:1) (Hyclone, cat #: SH30023.02), 1× Pen/Strep (Invitrogen, cat #: 15140-122), 10% FBS (Tissue Culture Biologics, cat #: 101), 250 μg/mL G418 (Alfa Aesar, cat #: J62671), 1 μg/mL Tetracycline (Teknova, cat #: T3320)) were detached with 0.25% trypsin-EDTA (Invitrogen, cat #: 25200-056). Tetracycline-free treatment medium (15 mL DMEM/F12 (1:1) 1× Pen/step, with 2% FBS, Tet-system approved (Clontech, cat #: 631106) were then added to mix, transferred into a 50 ml conical tube (Falcon, cat #: 21008-918) and spun at 1300 rpm for 5 min. Pelleted cells were then re-suspended/washed with 50 mL of 1×DPBS (Invitrogen, cat #: 14190-136) 2 times and 50 mL treatment medium twice. HepAD38 cells were then re-suspended with 10 mL of treatment medium, syringed and counted. Wells of 96-well clear bottom TC plate (Corning, cat #: 3904) were seeded at 50,000 cells/well in 180 μL of treatment medium, and 20 μL of either 10% DMSO (Sigma, cat #: D4540) as controls or a 10× solution of test compounds in 10% DMSO in treatment media was added for a final compound concentration starting at 10 μM, and plates were incubated in 5% CO2 incubator at 37° C. for 5 days.
Subsequently viral load production was assayed by quantitative PCR (qPCR) of the HBV core sequence. PCR reaction mixture containing forward primers HBV-f 5′-CTGTGCCTTGGGTGGCITT-3′ (IDT DNA), Reverse primers HBV-r 5′-[…]-3′ (IDT DNA), Fluorescent TaqMan™ Probes HBV-probe 5′-FAM/AGCTCCAAA/ZENMITCTITATAAGGGTCGATGTC/3IABkFQ-3′ (IDT DNA), 10 μL/well of PerfeCTa® qPCR ToughMix® (Quanta Biosciences, Cat #: 95114-05K), and 6 μL/well of DEPC water (Alfa Aesar, cat #: J62087) was prepared. Four μL of supernatant was added to 16 μL of the reaction mixture in a qPCR plate (Applied Biosytems, Cat #: 4309849), sealed with a film (Applied Biosystems, Cat #: 4311971), centrifuged for a few seconds, and subsequently run on an Applied Biosystems VIIA7. The PCR mixture was incubated at 45° C. for 5 min, then 95° C. for 10 min, followed by 40 cycles of 10 seconds at 95° C. and 20 seconds at 60° C. Viral load was quantified against known HBV DNA standards by using ViiA™ 7 Software. Viral load in the supernatant from wells with treated cells were compared against viral load in supernatant from DMSO control wells (3 per plate). Cell viability assay was performed with CellTiter-Glo Luminescent Cell Viability Assay (Promega, cat #: G7573) with modification. Mixed appropriate amount of CellTiter-Glo (CTG) 1×DPBS in a 1:1 ratio, added 100 uL of the mixture to each well followed completely removal of all supernatant in each well without touching cell surface. Incubated the plate at room temperature for 10 min on an orbital shaker, and then read the plate with a plate reader (TECAN M1000 or Envision). EC50 or CC50 values were calculated through curve-fitting of the four-parameter nonlinear-logistic-regression model (GraphPad Prism or Dotmatics). CC50 values were all >10 μM.

| Compound | EC50 |
| --- | --- |
| CC(C)Oc1cc(C2(O)CC3CC(c4ncn(C)c4C(=O)Nc4ccc(F)c(Cl)c4)CC3C2)n(C)n1 (stereo not drawn) [Example 54, N-(3-Chloro-4-fluorophenyl)-4-(5-hydroxy-5-(3-isopropoxy-1-methyl-1H-pyrazol-5-yl)octahydropentalen-2-yl)-1-methyl-1H-imidazole-5-carboxamide] | < 10 nM |
| Cn1cc(C2(O)CC3CC(c4ncn(C)c4C(=O)Nc4ccc(F)c(Cl)c4)CC3C2)c(C(N)=O)n1 (stereo not drawn) [Example 178, 4-(5-(5-((3-Chloro-4-fluorophenyl)carbamoyl)-1-methyl-1H-imidazol-4-yl)-2-hydroxyoctahydropentalen-2-yl)-1-methyl-1H-pyrazole-3-carboxamide] | < 10 nM |
| Cn1cnc(C2CC3CC(O)(c4cc(N)nn4C)CC3C2)c1C(=O)Nc1ccc(F)c(Cl)c1 (stereo not drawn) [Example 51, 4-(5-(3-Amino-1-methyl-1H-pyrazol-5-yl)-5-hydroxyoctahydropentalen-2-yl)-N-(3-chloro-4-fluorophenyl)-1-methyl-1H-imidazole-5-carboxamide] | < 10 nM |
| Cn1cnc(C2CC3CC(O)(c4n[nH]cc4C(F)F)CC3C2)c1C(=O)Nc1ccc(F)c(Cl)c1 (stereo not drawn) [Example 169, N-(3-Chloro-4-fluorophenyl)-4-(5-(4-(difluoromethyl)-1H-pyrazol-3-yl)-5-hydroxyoctahydropentalen-2-yl)-1-methyl-1H-imidazole-5-carboxamide] | < 10 nM |
| Cn1cnc(C2CC3CC(O)(c4c(F)c(NCC(C)(C)O)nn4C)CC3C2)c1C(=O)Nc1ccc(F)c(Cl)c1 (stereo not drawn) [Example 63, N-(3-Chloro-4-fluorophenyl)-4-(5-(4-fluoro-3-((2-hydroxy-2-methylpropyl)amino)-1-methyl-1H-pyrazol-5-yl)-5-hydroxyoctahydropentalen-2-yl)-1-methyl-1H-imidazole-5-carboxamide] | < 10 nM |
| CN1CCN(C2CC3CC(c4ncn(C)c4C(=O)Nc4ccc(F)c(Cl)c4)CC3C2)CC1 (stereo not drawn) [Example 18, N-(3-Chloro-4-fluorophenyl)-1-methyl-4-(5-(4-methylpiperazin-1-yl)octahydropentalen-2-yl)-1H-imidazole-5-carboxamide] | 10 to 50 nM |
| Cn1cnc(C2CC3CC(O)(c4cc(C#N)nn4C)CC3C2)c1C(=O)Nc1ccc(F)c(Cl)c1 (stereo not drawn) [Example 57, N-(3-Chloro-4-fluorophenyl)-4-(5-(3-cyano-1-methyl-1H-pyrazol-5-yl)-5-hydroxyoctahydropentalen-2-yl)-1-methyl-1H-imidazole-5-carboxamide] | < 10 nM |
| CC(C)n1nccc1C1(O)CC2CC(c3ncn(C)c3C(=O)Nc3ccc(F)c(Cl)c3)CC2C1 (stereo not drawn) [Example 120, N-(3-chloro-4-fluorophenyl)-4-(5-hydroxy-5-(1-isopropyl-1H-pyrazol-5-yl)octahydropentalen-2-yl)-1-methyl-1H-imidazole-5-carboxamide] | < 10 nM |
| O=C(Nc1ccc(F)c(Cl)c1)c1[nH]cnc1C1CC2CC(O)CC2C1 (stereo not drawn) [Example 223] | 50 to 500 nM |
| Cn1cnc(C2CC3CC(O)(c4c(Cl)c(N)nn4C)CC3C2)c1C(=O)Nc1ccc(F)c(Cl)c1 (stereo not drawn) [Example 98, 4-(5-(3-amino-4-chloro-1-methyl-1H-pyrazol-5-yl)-5-hydroxyoctahydropentalen-2-yl)-N-(3-chloro-4-fluorophenyl)-1-methyl-1H-imidazole-5-carboxamide] | < 10 nM |
| Cn1cc(C(F)(F)F)c(C2(O)CC3CC(c4ncn(C)c4C(=O)Nc4ccc(F)c(Cl)c4)CC3C2)n1 (stereo not drawn) [Example 156, N-(3-Chloro-4-fluorophenyl)-4-(5-hydroxy-5-(1-methyl-4-(trifluoromethyl)-1H-pyrazol-3-yl)octahydropentalen-2-yl)-1-methyl-1H-imidazole-5-carboxamide] | < 10 nM |
| [2H]C([2H])([2H])C1(O)CC2CC(c3ncn(C)c3C(=O)Nc3ccc(F)c(Cl)c3)CC2C1 (single isomer, unassigned) [Example 80, N-(3-Chloro-4-fluorophenyl)-4(5-hydroxy-5-(methyl-d3)octahydropentalen-2-yl)-1-methyl-1H-imidazole-5-carboxamide] | 50 to 500 nM |
| CC(CO)Oc1cc(C2(O)CC3CC(c4ncn(C)c4C(=O)Nc4ccc(F)c(Cl)c4)CC3C2)n(C)n1 (single isomer, unassigned) [Example 68, N-(3-Chloro-4-fluorophenyl)-4-(5-hydroxy-5-(3-((1-hydroxypropan-2-yl)oxy)-1-methyl-1H-pyrazol-5-yl)octahydropentalen-2-yl)-1-methyl-1H-imidazole-5-carboxamide] | < 10 nM |
| Cn1cnc(C2CC3CC(O)(c4c(C(F)(F)F)cnn4C)CC3C2)c1C(=O)Nc1ccc(F)c(Cl)c1 (stereo not drawn) [Example 99, N-(3-chloro-4-fluorophenyl)-4-(5-hydroxy-5-(1-methyl-4-(trifluoromethyl)-1H-pyrazol-5-yl)octahydropentalen-2-yl)-1-methyl-1H-imidazole-5-carboxamide] | < 10 nM |
| Cc1nc(C2CC3CC(O)(c4c(Cl)cnn4C)CC3C2)c(C(=O)Nc2ccc(F)c(Cl)c2)n1C (stereo not drawn) [Example 138, 4-(5-(4-Chloro-1-methyl-1H-pyrazol-5-yl)-5-hydroxyoctahydropentalen-2-yl)-N-(3-chloro-4-fluorophenyl)-1,2-dimethyl-1H-imidazole-5-carboxamide] | < 10 nM |
| CC(O)COc1cc(C2(O)CC3CC(c4ncn(C)c4C(=O)Nc4ccc(F)c(Cl)c4)CC3C2)n(C)n1 (single isomer, unassigned) [Example 209, N-(3-Chloro-4-fluorophenyl)-4-(5-hydroxy-5-(3-(2-hydroxypropoxy)-1-methyl-1H-pyrazol-5-yl)octahydropentalen-2-yl)-1-methyl-1H-imidazole-5-carboxamide] | < 10 nM |
| Cn1cc(C2(O)CC3CC(c4nc(Cl)n(C)c4C(=O)Nc4ccc(F)c(Cl)c4)CC3C2)c(C(F)(F)F)n1 (stereo not drawn) [Example 110, 2-Chloro-N-(3-chloro-4-fluorophenyl)-4-(5-hydroxy-5-(1-methyl-3-(trifluoromethyl)-1H-pyrazol-4-yl)octahydropentalen-2-yl)-1-methyl-1H-imidazole-5-carboxamide] | < 10 nM |
| CNc1nc(C2CC3CC(=O)CC3C2)c(C(=O)Nc2ccc(F)c(Cl)c2)n1C (stereo not drawn) [Example 29, N-(3-Chloro-4-fluorophenyl)-1-methyl-2-(methylamino)-4-(5-oxooctahydropentalen-2-yl)-1H-imidazole-5-carboxamide] | 10 to 50 nM |
| Cn1cnc(C2CC3CC(O)(c4c(F)c(OCC(C)(C)O)nn4C)CC3C2)c1C(=O)Nc1ccc(F)c(Cl)c1 (stereo not drawn) [Example 212, N-(3-Chloro-4-fluorophenyl)-4-(5-(4-fluoro-3-(2-hydroxy-2-methylpropoxy)-1-methyl-1H-pyrazol-5-yl)-5-hydroxyoctahydropentalen-2-yl)-1-methyl-1H-imidazole-5-carboxamide] | < 10 nM |
| Cn1cnc(C2CC3CC(O)(c4cc(Cl)nn4C)CC3C2)c1C(=O)Nc1ccc(F)c(Cl)c1 (single isomer, unassigned) [Example 73, 4-(5-(3-Chloro-1-methyl-1H-pyrazol-5-yl)-5-hydroxyoctahydropentalen-2-yl)-N-(3-chloro-4-fluorophenyl)-1-methyl-1H-imidazole-5-carboxamide] | < 10 nM |

same assay, conditions: viral load lowering, 5 days, qPCR of supernatant, read-out: VL HepAD38 EC50 range

| Compound | EC50 |
| --- | --- |
| Cn1cnc(C2CC3CC(NC4CC4)CC3C2)c1C(=O)Nc1ccc(F)c(Cl)c1 (single isomer, unassigned) [Example 45, 5-[-5-(Cyclopropylamino)-1,2,3,3a,4,5,6,6a-octahydropentalen-2-yl]-N-(3-chloro-4-fluorophenyl)-3-methyl-4-imidazolecarboxamide] | 10 to 50 nM |
